The subject of assay [1] is BA/F3 cell line. Nature of the assay: BA/F3 viability assay. Particulars: Mus musculus, BaF3, 48 h, read-out: BA/F3 IC50.
Assay [2] addresses T1, human JAK3 (Homo sapiens, UniProt P52333).
T1 construct: catalytic domain (amino acids 781-1124; catalog number PV3855); purchased Invitrogen PV3855
The assay can be described thus: JAK3 inhibition assay. The assay is classed as biochemical. The following applies: recombinant human JAK3 catalytic domain; polyGT substrate. In a few lines:
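Radiometric kinase assay: 0.5 ng JAK3 with 2.5 μg polyGT in Tris pH 7.5/MgCl2 buffer, 1 μM ATP plus 0.25 μCi 33P-γ-ATP, 1% DMSO, 45 min at 30 °C, stopped with phosphoric acid.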

Assay [3] relates to pSTAT1(2)-luciferase reporter in HeLa cells triggered with human OSM. Nature of the assay: JAK-STAT signalling assay. The format is cell-based. Particulars: HeLa cells, pSTAT1(2)-luciferase reporter, human OSM 33 ng/mL, read-out: JAK-STAT IC50. In short, it runs like this:
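HeLa cells transiently co-transfected with pSTAT1(2)-luciferase and LacZ control reporter, preincubated with compound 60 min, then stimulated with human OSM (33 ng/mL final) overnight at 37 °C. Luciferase read by luminescence; percent inhibition from vehicle and no-trigger controls, EC50 from dose-response.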
On the technique in general: A reporter such as luciferase makes a cellular process visible.

The target in assay [4] is T2, human JAK1 (Homo sapiens, UniProt P23458).
T2 construct: catalytic domain, amino acids 866-1154; catalog number PV4774; purchased Invitrogen PV4774
Nature of the assay: JAK1 inhibition assay (polyGT substrate / Ulight-JAK1 peptide). The format is biochemical. The following applies: recombinant human JAK1 catalytic domain; polyGT or Ulight-JAK1 peptide assay. In short, it runs like this:
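Two formats. PolyGT radiometric: 45 min at 30 °C, stopped with phosphoric acid, counted as cpm. Ulight-JAK1 peptide: 60 min at room temperature, stopped with Eu-anti-phosphotyrosine/EDTA, read as RFU. Percent inhibition normalised to vehicle and 10 μM staurosporine.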

The test system of assay [5] is CTLL-2 cell line. The assay can be described thus: CTLL2 viability assay. The format is cell-based. The following applies: Mus musculus, IL-2 dependent CTLL2 viability, 24 h, ATP-lite. An excerpt:
The protocol describes the methods to analyse the activity of compounds on their ability to sustain the IL2-dependent viability of CTLL2.
Final DMSO concentration was 0.1%.

For assay [6], the target named is T3, human TYK2 (Homo sapiens, UniProt P29597).
T3 construct: catalytic domain (amino acids 871-1187; catalog number 08-147); purchased Carna Biosciences 08-147
T3 sequence (P29597 871-1187): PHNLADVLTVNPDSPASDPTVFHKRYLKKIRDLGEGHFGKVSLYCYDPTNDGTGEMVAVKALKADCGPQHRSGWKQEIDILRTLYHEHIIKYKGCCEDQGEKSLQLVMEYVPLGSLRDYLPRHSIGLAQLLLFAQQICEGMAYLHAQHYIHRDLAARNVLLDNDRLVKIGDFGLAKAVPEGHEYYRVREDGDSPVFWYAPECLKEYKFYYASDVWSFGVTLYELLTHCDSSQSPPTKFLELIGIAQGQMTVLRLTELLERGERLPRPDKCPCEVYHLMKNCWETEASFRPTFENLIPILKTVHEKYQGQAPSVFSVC
The assay can be described thus: TYK2 inhibition assay. The assay is classed as biochemical. The following applies: recombinant human TYK2 catalytic domain, polyGT substrate. In a few lines:
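Radiometric kinase reaction run 90 min at 30 °C, stopped with phosphoric acid, washed and scintillation-counted.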

Where two headings read alike, the source gives them in different places. Some results are limits rather than exact numbers.

T1 sequence (P52333 781-1124): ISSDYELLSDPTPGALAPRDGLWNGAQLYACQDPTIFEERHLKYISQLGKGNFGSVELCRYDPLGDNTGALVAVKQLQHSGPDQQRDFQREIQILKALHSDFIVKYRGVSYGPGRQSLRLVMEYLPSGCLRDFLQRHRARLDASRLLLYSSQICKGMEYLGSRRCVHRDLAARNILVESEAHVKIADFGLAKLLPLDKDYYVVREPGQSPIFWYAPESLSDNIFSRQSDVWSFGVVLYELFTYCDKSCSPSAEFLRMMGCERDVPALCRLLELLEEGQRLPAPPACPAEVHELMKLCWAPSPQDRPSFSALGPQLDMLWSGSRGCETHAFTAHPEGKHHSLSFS
T2 sequence (P23458 866-1154): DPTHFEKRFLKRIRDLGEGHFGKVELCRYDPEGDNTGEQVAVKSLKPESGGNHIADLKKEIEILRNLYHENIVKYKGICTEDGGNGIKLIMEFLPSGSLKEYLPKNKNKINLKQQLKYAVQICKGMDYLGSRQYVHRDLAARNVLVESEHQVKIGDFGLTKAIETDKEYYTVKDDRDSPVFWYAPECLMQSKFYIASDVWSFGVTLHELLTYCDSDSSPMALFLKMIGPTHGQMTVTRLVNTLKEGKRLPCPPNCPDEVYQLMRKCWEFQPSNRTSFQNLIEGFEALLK

Take `CCc1cc(-c2cncs2)ccc1N(C)c1cc2c(cn1)ncn2C` [Compound 151, N-(2-Ethyl-4-(thiazol-5-yl)phenyl)-N,1-dimethyl-1H-imidazo[4,5-c]pyridin-6-amine]: the IC50 in assay [1] is 1000 to 5000 nM; in assay [2], 0.01 to 100 nM; in assay [3] (Homo sapiens, HeLa) it was 1 to 500 nM; in assay [4] it was 0.01 to 100 nM; in assay [5], above 1000 nM; in assay [6] it was 0.01 to 100 nM.

With `CCc1cc(-c2cncc(C(F)(F)F)c2)ccc1N(C)c1cc2c(cn1)ncn2C` [Compound 194, N-(2-ethyl-4-(5-(trifluoromethyl)pyridin-3-yl)phenyl)-N,1-dimethyl-1H-imidazo[4,5-c]pyridin-6-amine], the IC50 in assay [1] was 1000 to 5000 nM; in assay [2], above 1000 nM; in assay [3] (Homo sapiens, HeLa), above 1000 nM; in assay [4] it was 0.01 to 100 nM; in assay [5], above 1000 nM; in assay [6], 501 to 1000 nM.

For the compound `CCc1cc(CNS(=O)(=O)CC)ccc1N(C)c1cc2c(cn1)ncn2C` [Compound 253, N-(3-ethyl-4-(methyl(1-methyl-1H-imidazo[4,5-c]pyridin-6-yl)amino)benzyl)ethane-sulfonamide], the IC50 in assay [1] was above 5000 nM; in assay [2], 0.01 to 100 nM; in assay [3] (Homo sapiens, HeLa) it was 1 to 500 nM; in assay [4], 0.01 to 100 nM; in assay [5] it was above 1000 nM; in assay [6], 0.01 to 100 nM.

Turning to `CCc1cc(C2CCOCC2)ccc1N(C)c1cc2c(cn1)ncn2C` [Compound 186, N-(2-Ethyl-4-(tetrahydro-2H-pyran-4-yl)phenyl)-N,1-dimethyl-1H-imidazo[4,5-c]pyridin-6-amine], the IC50 in assay [1] is 1000 to 5000 nM; in assay [2], 101 to 500 nM; in assay [3] (Homo sapiens, HeLa) it was 1 to 500 nM; in assay [4], 0.01 to 100 nM; in assay [5], above 1000 nM; in assay [6] it was 0.01 to 100 nM.

Take `CCc1cc(C2=CCN(C(=O)CC#N)CC2)ccc1N(C)c1cc2c(cn1)ncn2C` [Compound 195, 3-(4-(3-Ethyl-4-(methyl(1-methyl-1H-imidazo[4,5-c]pyridin-6-yl)amino)phenyl)-5,6-dihydropyridin-1(2H)-yl)-3-oxopropanenitrile]: the IC50 is 1000 to 5000 nM in assay [1]; 101 to 500 nM in assay [2]; 501 to 1000 nM in assay [3] (Homo sapiens, HeLa); 0.01 to 100 nM in assay [4]; above 1000 nM in assay [5]; 0.01 to 100 nM in assay [6].

Consider `CCc1cc(CNC(=O)COC)ccc1N(C)c1cc2c(cn1)ncn2C` [Compound 254, N-(3-Ethyl-4-(methyl(1-methyl-1H-imidazo[4,5-c]pyridin-6-yl)amino)benzyl)-2-methoxyacetamide], for which the IC50 in assay [1] is above 5000 nM; in assay [2] it was above 1000 nM; in assay [3] (Homo sapiens, HeLa), above 1000 nM; in assay [4], 0.01 to 100 nM; in assay [5] it was above 1000 nM; in assay [6], above 1000 nM.

Consider `CCc1cc(CNC(C)=O)ccc1N(C)c1cc2c(cn1)ncn2C` [Compound 182, N-(3-Ethyl-4-(methyl(1-methyl-1H-imidazo[4,5-c]pyridin-6-yl)amino)benzyl)acetamide], for which the IC50 was above 5000 nM in assay [1]; 501 to 1000 nM in assay [2]; above 1000 nM in assay [3] (Homo sapiens, HeLa); 0.01 to 100 nM in assay [4]; above 1000 nM in assay [5]; 101 to 500 nM in assay [6].

For the compound `CCc1cc(-c2cn[nH]c2)ccc1N(C)c1cc2c(cn1)ncn2C` [Compound 210, N-(2-ethyl-4-(1H-pyrazol-4-yl)phenyl)-N,1-dimethyl-1H-imidazo[4,5-c]pyridin-6-amine], the IC50 in assay [1] was 1 to 1000 nM; in assay [2], 0.01 to 100 nM; in assay [3] (Homo sapiens, HeLa) it was 1 to 500 nM; in assay [4], 0.01 to 100 nM; in assay [5] it was above 1000 nM; in assay [6], 0.01 to 100 nM.

Take `CCc1cc(C2=CCN(C(=O)[C@@H](C)O)CC2)ccc1N(C)c1cc2c(cn1)ncn2C` [Compound 248, (R)-1-(4-(3-ethyl-4-(methyl(1-methyl-1H-imidazo[4,5-c]pyridin-6-yl)amino)phenyl)-5,6-dihydropyridin-1(2H)-yl)-2-hydroxypropan-1-one]: the IC50 is 1000 to 5000 nM in assay [1]; 0.01 to 100 nM in assay [2]; 1 to 500 nM in assay [3] (Homo sapiens, HeLa); 0.01 to 100 nM in assay [4]; above 1000 nM in assay [5]; 0.01 to 100 nM in assay [6].

For the compound `CCc1cc(C2=CCN(C(=O)COC)CC2)ccc1N(C)c1cc2c(cn1)ncn2C` [Compound 199, 1-(4-(3-ethyl-4-(methyl(1-methyl-1H-imidazo[4,5-c]pyridin-6-yl)amino)phenyl)-5,6-dihydropyridin-1(2H)-yl)-2-methoxyethanone], the IC50 in assay [1] was 1000 to 5000 nM; in assay [2], 0.01 to 100 nM; in assay [3] (Homo sapiens, HeLa) it was 1 to 500 nM; in assay [4], 0.01 to 100 nM; in assay [5], above 1000 nM; in assay [6], 0.01 to 100 nM.

Consider `CCc1cc(CNS(C)(=O)=O)ccc1N(C)c1cc2c(cn1)ncn2C` [Compound 190, N-(3-Ethyl-4-(methyl(1-methyl-1H-imidazo[4,5-c]pyridin-6-yl)amino)benzyl)methane sulfonamide], for which the IC50 is 1000 to 5000 nM in assay [1]; 0.01 to 100 nM in assay [2]; 1 to 500 nM in assay [3] (Homo sapiens, HeLa); 0.01 to 100 nM in assay [4]; above 1000 nM in assay [5]; 0.01 to 100 nM in assay [6].

Consider `CCc1cc(C2=CCN(C(=O)C(F)F)CC2)ccc1N(C)c1cc2c(cn1)ncn2C` [Compound 197, 1-(4-(3-ethyl-4-(methyl(1-methyl-1H-imidazo[4,5-c]pyridin-6-yl)amino)phenyl)-5,6-dihydropyridin-1(2H)-yl)-2,2-difluoroethanone], for which the IC50 lay in the range of 1000 to 5000 nM in assay [1]; 0.01 to 100 nM in assay [2]; 1 to 500 nM in assay [3] (Homo sapiens, HeLa); 0.01 to 100 nM in assay [4]; 501 to 1000 nM in assay [5]; 0.01 to 100 nM in assay [6].

Take `CCc1cc(CNS(=O)(=O)C2CC2)ccc1N(C)c1cc2c(cn1)ncn2C` [Compound 227, N-(3-ethyl-4-(methyl(1-methyl-1H-imidazo[4,5-c]pyridin-6-yl)amino)benzyl)cyclopro-panesulfonamide]: the IC50 in assay [1] is above 5000 nM; in assay [2], 501 to 1000 nM; in assay [3] it was 501 to 1000 nM; in assay [4], 0.01 to 100 nM; in assay [5], above 1000 nM; in assay [6], 101 to 500 nM.

In the case of `CCc1cc(CNC2COC2)ccc1N(C)c1cc2c(cn1)ncn2C` [Compound 167, N-(2-ethyl-4-((oxetan-3-ylamino)methyl)phenyl)-N,1-dimethyl-1H-imidazo[4,5-c]pyridin-6-amine], the IC50 was above 5000 nM in assay [1]; above 1000 nM in assay [2]; above 1000 nM in assay [3]; 0.01 to 100 nM in assay [4]; above 1000 nM in assay [5]; 501 to 1000 nM in assay [6].

For the origin of these results see patent US20130217664A1, “NOVEL COMPOUNDS USEFUL FOR THE TREATMENT OF DEGENERATIVE AND INFLAMMATORY DISEASES” (priority 2012, published 2013).
